Source: patent publication US12084437B2, “Halo-substituted piperidines as orexin receptor modulators” (AstraZeneca AB, priority 2016, dated 2024)

Experiments:
OX2 = target: T1, OX2 (Homo sapiens, UniProt O43614); assay: Orexin receptor cell-based functional assay, [Ca2+]i by FLIPR, CHO-OX2 cells; conditions: FLIPR calcium, antagonism of EC90 of [OX]
T1 construct: expressed in transfected cells; host or cells: CHO (CHO-OX2)
T1 sequence (O43614 1-444): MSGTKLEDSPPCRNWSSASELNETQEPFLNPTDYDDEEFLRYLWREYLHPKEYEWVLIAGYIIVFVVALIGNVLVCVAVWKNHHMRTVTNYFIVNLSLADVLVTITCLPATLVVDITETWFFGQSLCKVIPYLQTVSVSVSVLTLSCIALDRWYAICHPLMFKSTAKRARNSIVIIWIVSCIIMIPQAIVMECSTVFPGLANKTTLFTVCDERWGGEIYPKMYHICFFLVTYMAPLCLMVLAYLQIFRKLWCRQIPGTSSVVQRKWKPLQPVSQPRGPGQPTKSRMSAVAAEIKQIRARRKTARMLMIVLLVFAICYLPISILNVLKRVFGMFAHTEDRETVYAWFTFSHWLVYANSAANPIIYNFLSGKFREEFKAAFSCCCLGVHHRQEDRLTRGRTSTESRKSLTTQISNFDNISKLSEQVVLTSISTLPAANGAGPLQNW
Method: (§1) Measurement of [Ca^2+]i using a FLIPR: CHO-OX1 or CHO-OX2 cells were seeded into black-walled clear-base 384-well plates (Corning, catalog #3712) at a density of 20,000 cells per well in F12-K medium supplemented with 10% FBS and then incubated in a 5% CO2, 37° C. incubator overnight to reach 90% confluency. The cells were incubated with equal volume of calcium6 loading buffer (Molecular Devices, Inc.) containing 2.5 mM probenecid at 37° C. for 2 h, followed by test compounds (dose-range 0.1 nM-10 μM) for another 30 min. The plates were then placed into a FLIPR (Molecular Devices, Inc.) to monitor fluorescence (λ excitation 488 nm, λ emission 540 nm) before and after the addition of EC90 of [OX]. Results for exemplary compounds of Formulae (I), (Ia), (Ib), (II), (IIa), (III), (IIIa), (IV), (IVa), (V), or (Va) are shown in Table 3.

OX1 = target: T2, OX1 (Homo sapiens, UniProt O43613); assay: Orexin receptor cell-based functional assay, [Ca2+]i by FLIPR, CHO-OX1 cells; conditions: FLIPR calcium, antagonism of EC90 of [OX], read-out: OXI, IC50
T2 construct: expressed in transfected cells; host or cells: CHO (CHO-OX1)
T2 sequence (O43613 1-425): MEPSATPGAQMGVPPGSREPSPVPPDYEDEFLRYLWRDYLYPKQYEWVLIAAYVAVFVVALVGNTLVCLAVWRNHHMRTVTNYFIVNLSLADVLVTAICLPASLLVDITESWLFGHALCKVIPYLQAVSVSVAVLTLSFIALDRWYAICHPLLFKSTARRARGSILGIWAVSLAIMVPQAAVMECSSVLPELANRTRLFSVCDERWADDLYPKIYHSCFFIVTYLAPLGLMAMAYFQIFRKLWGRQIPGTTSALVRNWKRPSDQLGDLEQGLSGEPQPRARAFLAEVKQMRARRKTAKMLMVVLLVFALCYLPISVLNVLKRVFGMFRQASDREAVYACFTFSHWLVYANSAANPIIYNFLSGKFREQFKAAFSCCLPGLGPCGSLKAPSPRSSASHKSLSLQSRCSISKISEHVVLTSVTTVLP
Method: as §1, with “[OX].” for “[OX]. Results for exemplary compounds of Formulae (I), (Ia), (Ib), (II), (IIa), (III), (IIIa), (IV), (IVa), (V), or (Va) are shown in Table 3.”

Row | Compound | IC50 (OX2) [nM] | IC50 (OX1) [nM]
1 | C[C@@H]1CC(F)(F)CN(C(=O)c2cc(C#N)ccc2-c2ccc(F)cc2)[C@@H]1CNc1ncc(Cl)cn1 [Compound 53] | > 5000 | 29
2 | C[C@@H]1CC(F)(F)CN(C(=O)c2nn(C)nc2-c2ccc(Cl)cn2)[C@@H]1CNc1ncc(C(F)(F)F)cn1 [Compound 249] | > 5000 | 8
3 | Cc1ccc(-c2ncccn2)c(C(=O)N2CC(F)(F)C[C@@H](C)[C@H]2CNc2ncc(C(F)(F)F)cn2)c1 [Compound 55, ((2S,3R)-5,5-difluoro-3-methyl-2-(((5-(trifluoromethyl)pyrimidin-2-yl)amino)methyl)piperidin-1-yl)(5-methyl-2-(pyrimidin-2-yl)phenyl)methanone] | > 5000 | 30
4 | CCc1cnc(NC[C@@H]2[C@H](C)CC(F)(F)CN2C(=O)c2nc(C)sc2-c2ccc(F)cc2)nc1 [Compound 239, ((2S,3R)-2-(((5-ethylpyrimidin-2-yl)amino)methyl)-5,5-difluoro-3-methylpiperidin-1-yl)(5-(4-fluorophenyl)-2-methylthiazol-4-yl)methanone] | > 5000 | 29
5 | C[C@@H]1CC(F)(F)CN(C(=O)c2cc(Cl)ccc2-c2ncccn2)[C@@H]1CNc1ncc(Cl)cn1 [Compound 57, (5-chloro-2-(pyrimidin-2-yl)phenyl)((2S,3R)-2-(((5-chloropyrimidin-2-yl)amino)methyl)-5,5-difluoro-3-methylpiperidin-1-yl)methanone] | > 5000 | 24
6 | Cc1cc(C(=O)N2CC(F)(F)C[C@@H](C)[C@H]2CNc2ncc(Cl)cn2)c(-c2ccccn2)s1 [Compound 92] | > 5000 | 24
7 | COc1cccc(-c2cn(C)nc2C(=O)N2CC(F)(F)C[C@@H](C)[C@H]2CNc2cnc(C(F)(F)F)cn2)c1 [Compound 124] | 1000 | 4
8 | C[C@@H]1CC(F)(F)CN(C(=O)c2cn(C)nc2-c2ccccn2)[C@@H]1CNc1cnc(C(F)(F)F)cn1 [Compound 158] | > 5000 | 62
9 | CC(C)n1cc(-c2ncccn2)c(C(=O)N2CC(F)(F)C[C@@H](C)[C@H]2CNc2ncc(C(F)(F)F)cn2)n1 [Compound 237, ((2S,3R)-5,5-difluoro-3-methyl-2-(((5-(trifluoromethyl)pyrimidin-2-yl)amino)methyl)piperidin-1-yl)(1-isopropyl-4-(pyrimidin-2-yl)-1H-pyrazol-3-yl)methanone] | > 5000 | 1700
10 | Cc1ccc(-c2cn(C)nc2C(=O)N2CC(F)(F)C[C@@H](C)[C@H]2CNc2ncc(C(F)(F)F)cn2)cn1 [Compound 89] | > 5000 | 23
11 | Cc1nc(C(=O)N2CC(F)(F)C[C@@H](C)[C@H]2CNc2ncc(C(F)(F)F)cn2)c(-c2ccccn2)o1 [Compound 87] | > 5000 | > 1000
12 | C[C@@H]1CC(F)(F)CN(C(=O)c2nn(C)cc2-c2ncccn2)[C@@H]1CNc1ccc(C(F)(F)F)cn1 [Compound 200, ((2S,3R)-5,5-difluoro-3-methyl-2-(((5-(trifluoromethyl)pyridin-2-yl)amino)methyl)piperidin-1-yl)(1-methyl-4-(pyrimidin-2-yl)-1H-pyrazol-3-yl)methanone] | > 5000 | 4
13 | C[C@@H]1CC(F)(F)CN(C(=O)c2nn(C)cc2-c2ncc(F)cn2)[C@@H]1CNc1ncc(C(F)(F)F)cn1 [Compound 217, ((2S,3R)-5,5-difluoro-3-methyl-2-(((5-(trifluoromethyl)pyrimidin-2-yl)amino)methyl)piperidin-1-yl)(4-(5-fluoropyrimidin-2-yl)-1-methyl-1H-pyrazol-3-yl)methanone] | > 5000 | 4
14 | Cc1ccccc1-c1cn(C)nc1C(=O)N1CC(F)(F)C[C@@H](C)[C@H]1CNc1ncc(C(F)(F)F)cn1 [Compound 24] | > 5000 | 385
15 | COc1cccc(-c2sc(C)nc2C(=O)N2CC(F)(F)C[C@@H](C)[C@H]2CNc2cnc(C(F)(F)F)cn2)n1 [Compound 151] | > 5000 | 11
